# ChEMBL document CHEMBL3611975, “New carbocyclic N(6)-substituted adenine and pyrimidine nucleoside analogues with a bicyclo[2.2.1]heptane fragment as sugar moiety; synthesis, antiviral, anticancer activity and X-ray crystallography” (Bioorg Med Chem, 2015)
# What was measured:
# MDA-MB-435 = experiment: Cytotoxicity against human MDA-MB-435 cells assessed as growth at 10^-5 M relative to control
# SK-MEL-2 = experiment: Cytotoxicity against human SK-MEL-2 cells assessed as growth at 10^-5 M relative to control
# UACC-62 = experiment: Cytotoxicity against human UACC62 cells assessed as growth at 10^-5 M relative to control
# MDA-MB-468 = experiment: Cytotoxicity against human MDA-MB-468 cells assessed as growth at 10^-5 M relative to control
# Influenza A virus = experiment: Antiviral activity against Influenza A virus (A/Puerto Rico/8/1934(H1N1)) infected in MDCK cells assessed as decrease in virus titer after 48 hrs by MTT assay; format: functional, organism-based
# U-251 = experiment: Cytotoxicity against human U251 cells assessed as growth at 10^-5 M relative to control
# UO-31 = experiment: Cytotoxicity against human UO31 cells assessed as growth at 10^-5 M relative to control
# HL-60(TB) = experiment: Cytotoxicity against human HL-60(TB) cells assessed as growth inhibition at 10^-5 M relative to control; format: functional; settings: read-out: GI
# RPMI-8226 = experiment: Cytotoxicity against human RPMI8226 cells assessed as growth at 10^-5 M relative to control
# [1] = Selectivity index, ratio of CTD50 for African green monkey Vero cells to EC50 for Human coxsackievirus B4 Powers; format: toxicity, cell-based
# ACHN = experiment: Cytotoxicity against human ACHN cells assessed as growth at 10^-5 M relative to control
# OVCAR-8 = experiment: Cytotoxicity against human OVCAR8 cells assessed as growth at 10^-5 M relative to control
# [2] = Selectivity index, ratio of CTD50 for MDCK cells to EC50 for Influenza A virus (A/Puerto Rico/8/1934(H1N1)); format: toxicity, cell-based; settings: dog
# HCT-116 = experiment: Cytotoxicity against human HCT116 cells assessed as growth at 10^-5 M relative to control
# SK-MEL-5 = experiment: Cytotoxicity against human SK-MEL-5 cells assessed as growth at 10^-5 M relative to control
# HT-29 = experiment: Cytotoxicity against human HT-29 cells assessed as growth at 10^-5 M relative to control
# BT-549 = experiment: Cytotoxicity against human BT549 cells assessed as growth at 10^-5 M relative to control
# T47D = experiment: Cytotoxicity against human T47D cells assessed as growth at 10^-5 M relative to control
# K562 = experiment: Cytotoxicity against human K562 cells assessed as growth at 10^-5 M relative to control
# M14 = experiment: Cytotoxicity against human M14 cells assessed as growth at 10^-5 M relative to control
# DU-145 = experiment: Cytotoxicity against human DU145 cells assessed as growth at 10^-5 M relative to control
# KM12 = experiment: Cytotoxicity against human KM12 cells assessed as growth at 10^-5 M relative to control
# SW-620 = experiment: Cytotoxicity against human SW620 cells assessed as growth at 10^-5 M relative to control
# SNB-75 = experiment: Cytotoxicity against human SNB75 cells assessed as growth at 10^-5 M relative to control
# [3] = Cytotoxicity against African green monkey Vero cells assessed as cell viability after 72 hrs by MTT assay; format: cell-based; settings: chlorocebus sabaeus, read-out: CTD50
# HOP-62 = experiment: Cytotoxicity against human HOP62 cells assessed as growth at 10^-5 M relative to control
# IGROV-1 = experiment: Cytotoxicity against human IGROV1 cells assessed as growth at 10^-5 M relative to control
# Malme-3M = experiment: Cytotoxicity against human MALME-3M cells assessed as growth at 10^-5 M relative to control
# HCC 2998 = experiment: Cytotoxicity against human HCC2998 cells assessed as growth at 10^-5 M relative to control
# NCI-H23 = experiment: Cytotoxicity against human NCI-H23 cells assessed as growth at 10^-5 M relative to control
# NCI-H460 = experiment: Cytotoxicity against human NCI-H460 cells assessed as growth at 10^-5 M relative to control
# MCF7 = experiment: Cytotoxicity against human MCF7 cells assessed as growth at 10^-5 M relative to control
# SK-OV-3 = experiment: Cytotoxicity against human SKOV3 cells assessed as growth at 10^-5 M relative to control
# HCT-15 = experiment: Cytotoxicity against human HCT15 cells assessed as growth at 10^-5 M relative to control
# A549 = experiment: Cytotoxicity against human A549 cells assessed as growth at 10^-5 M relative to control
# MOLT-4 = experiment: Cytotoxicity against human MOLT4 cells assessed as growth at 10^-5 M relative to control
# SF-268 = experiment: Cytotoxicity against human SF268 cells assessed as growth at 10^-5 M relative to control
# SR = experiment: Cytotoxicity against human SR cells assessed as growth at 10^-5 M relative to control
# Coxsackievirus B4 = experiment: Antiviral activity against Human coxsackievirus B4 Powers infected in African green monkey Vero cells assessed as decrease in virus titer after 72 hrs by MTT assay; format: functional, organism-based; settings: Enterovirus B
# PC-3 = experiment: Cytotoxicity against human PC3 cells assessed as growth at 10^-5 M relative to control
Compound,"growth, % of control at 10 µM (MDA-MB-435) [%]","growth, % of control at 10 µM (SK-MEL-2) [%]","growth, % of control at 10 µM (UACC-62) [%]","growth, % of control at 10 µM (MDA-MB-468) [%]",EC50 (Influenza A virus) [µM],"growth, % of control at 10 µM (U-251) [%]","growth, % of control at 10 µM (UO-31) [%]",inhibition of growth at 10 µM (HL-60(TB)) [%],"growth, % of control at 10 µM (RPMI-8226) [%]",selectivity ratio [1],"growth, % of control at 10 µM (ACHN) [%]","growth, % of control at 10 µM (OVCAR-8) [%]",selectivity ratio [2],"growth, % of control at 10 µM (HCT-116) [%]","growth, % of control at 10 µM (SK-MEL-5) [%]","growth, % of control at 10 µM (HT-29) [%]","growth, % of control at 10 µM (BT-549) [%]","growth, % of control at 10 µM (T47D) [%]","growth, % of control at 10 µM (K562) [%]","growth, % of control at 10 µM (M14) [%]",other results
COc1ccc(CCNc2ncnc3c2ncn3[C@H]2C[C@H]3[C@H](CO)[C@@H]2C[C@@H]3Cl)cc1,114,101,99.6,101,16,105,81,94.7,82.5,1,97.7,101,22,100,87,87.9,86.8,66.1,82.8,98.3,"growth, % of control at 10 µM (DU-145): 105%; growth, % of control at 10 µM (KM12): 97%; growth, % of control at 10 µM (SW-620): 108%; growth, % of control at 10 µM (SNB-75): 92.8%; CC50 at 72 h [3]: 14 µM; growth, % of control at 10 µM (HOP-62): 107%; growth, % of control at 10 µM (IGROV-1): 98.7%; growth, % of control at 10 µM (Malme-3M): 98.2%; growth, % of control at 10 µM (HCC 2998): 97.2%; growth, % of control at 10 µM (NCI-H23): 102%; growth, % of control at 10 µM (NCI-H460): 106%; growth, % of control at 10 µM (MCF7): 94.1%; growth, % of control at 10 µM (SK-OV-3): 106%; growth, % of control at 10 µM (HCT-15): 95.5%; growth, % of control at 10 µM (A549): 83.3%; growth, % of control at 10 µM (MOLT-4): 103%; growth, % of control at 10 µM (SF-268): 97.7%; growth, % of control at 10 µM (SR): 86.7%; EC50 (Coxsackievirus B4): > 9 µM; growth, % of control at 10 µM (PC-3): 102%"
OC[C@H]1[C@@H]2C[C@H](n3cnc4c(NCCc5ccccc5)ncnc43)[C@H]1C[C@@H]2Cl,99.7,97.2,93.1,89.4,15,103,73.8,120,87.9,3,97.8,95.7,10,101,73.9,95.3,96.1,86.8,91.1,101,"growth, % of control at 10 µM (DU-145): 98%; growth, % of control at 10 µM (KM12): 102%; growth, % of control at 10 µM (SW-620): 99.7%; growth, % of control at 10 µM (SNB-75): 106%; CC50 at 72 h [3]: 14 µM; growth, % of control at 10 µM (HOP-62): 94.2%; growth, % of control at 10 µM (IGROV-1): 105%; growth, % of control at 10 µM (Malme-3M): 102%; growth, % of control at 10 µM (HCC 2998): 89.8%; growth, % of control at 10 µM (NCI-H23): 93.2%; growth, % of control at 10 µM (NCI-H460): 108%; growth, % of control at 10 µM (MCF7): 89.9%; growth, % of control at 10 µM (SK-OV-3): 103%; growth, % of control at 10 µM (HCT-15): 81.7%; growth, % of control at 10 µM (A549): 92.6%; growth, % of control at 10 µM (MOLT-4): 83.3%; growth, % of control at 10 µM (SF-268): 101%; growth, % of control at 10 µM (SR): 84.1%; EC50 (Coxsackievirus B4): 4 µM; growth, % of control at 10 µM (PC-3): 89.1%"
CCOc1ncnc2c1ncn2[C@H]1C[C@H]2[C@H](CO)[C@@H]1C[C@@H]2Cl,106,108,104,98.6,225,102,88.1,95.4,121,2,99,106,> 5,105,100,96.5,106,103,101,111,"growth, % of control at 10 µM (DU-145): 105%; growth, % of control at 10 µM (KM12): 101%; growth, % of control at 10 µM (SW-620): 109%; growth, % of control at 10 µM (SNB-75): 83.1%; CC50 at 72 h [3]: 208 µM; growth, % of control at 10 µM (HOP-62): 106%; growth, % of control at 10 µM (IGROV-1): 95.4%; growth, % of control at 10 µM (Malme-3M): 96%; growth, % of control at 10 µM (HCC 2998): 98.9%; growth, % of control at 10 µM (NCI-H23): 87.9%; growth, % of control at 10 µM (NCI-H460): 108%; growth, % of control at 10 µM (MCF7): 95.2%; growth, % of control at 10 µM (SK-OV-3): 128%; growth, % of control at 10 µM (HCT-15): 95.7%; growth, % of control at 10 µM (A549): 99%; growth, % of control at 10 µM (MOLT-4): 111%; growth, % of control at 10 µM (SF-268): 98%; growth, % of control at 10 µM (SR): 97.5%; EC50 (Coxsackievirus B4): > 102 µM; growth, % of control at 10 µM (PC-3): 104%"
